The values that follow are results of earlier work, collected in patent publication US20200237789A1, “COMBINATION THERAPY FOR PREVENTING ADDICTION” (Amygdala Neurosciences, Inc., priority 2017, published 2020).

The term IC50 denotes the midpoint of a concentration-inhibition curve.

Molecules are shown by their SMILES. Where only a bound is given, the exact number is not on record here.

The target in one data set is T1, hMAO-A (Homo sapiens, UniProt P21397).
T1 sequence (P21397 1-527): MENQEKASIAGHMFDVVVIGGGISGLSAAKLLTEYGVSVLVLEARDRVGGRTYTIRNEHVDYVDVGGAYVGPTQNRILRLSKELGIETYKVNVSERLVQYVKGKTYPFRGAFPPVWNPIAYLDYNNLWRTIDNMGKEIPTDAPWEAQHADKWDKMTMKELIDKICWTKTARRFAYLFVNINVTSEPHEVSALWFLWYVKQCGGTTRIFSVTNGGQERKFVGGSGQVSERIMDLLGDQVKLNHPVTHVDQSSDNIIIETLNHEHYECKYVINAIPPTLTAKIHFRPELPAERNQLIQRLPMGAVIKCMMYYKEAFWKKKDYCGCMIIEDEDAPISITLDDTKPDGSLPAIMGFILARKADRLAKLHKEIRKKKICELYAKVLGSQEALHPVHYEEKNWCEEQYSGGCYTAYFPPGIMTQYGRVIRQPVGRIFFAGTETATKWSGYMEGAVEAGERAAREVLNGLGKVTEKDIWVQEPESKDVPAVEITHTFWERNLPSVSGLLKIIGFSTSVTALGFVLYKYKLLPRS
The note with it: read-out: IC50 hMAO-A.

In a further data set the target is T2, hMAO-B (Homo sapiens, UniProt P27338).
T2 sequence (P27338 1-520): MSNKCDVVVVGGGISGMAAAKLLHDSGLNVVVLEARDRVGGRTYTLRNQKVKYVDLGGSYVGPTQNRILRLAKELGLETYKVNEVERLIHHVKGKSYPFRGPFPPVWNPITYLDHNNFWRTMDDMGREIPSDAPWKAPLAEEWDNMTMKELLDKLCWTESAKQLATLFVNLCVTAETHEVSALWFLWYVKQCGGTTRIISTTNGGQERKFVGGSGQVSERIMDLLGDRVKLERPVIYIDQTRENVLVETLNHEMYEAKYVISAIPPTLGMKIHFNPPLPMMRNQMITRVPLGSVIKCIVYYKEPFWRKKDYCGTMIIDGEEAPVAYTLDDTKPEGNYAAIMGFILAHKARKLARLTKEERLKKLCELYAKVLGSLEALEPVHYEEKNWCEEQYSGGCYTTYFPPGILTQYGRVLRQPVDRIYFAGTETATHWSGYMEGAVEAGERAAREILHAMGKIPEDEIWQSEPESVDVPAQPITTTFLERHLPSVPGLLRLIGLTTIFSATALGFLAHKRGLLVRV
The note with it: read-out: IC50 hMAO-B.

The next data set has as its target T3, human ALDH-2 enzyme (Homo sapiens, UniProt P05091).
T3 sequence (P05091 18-517): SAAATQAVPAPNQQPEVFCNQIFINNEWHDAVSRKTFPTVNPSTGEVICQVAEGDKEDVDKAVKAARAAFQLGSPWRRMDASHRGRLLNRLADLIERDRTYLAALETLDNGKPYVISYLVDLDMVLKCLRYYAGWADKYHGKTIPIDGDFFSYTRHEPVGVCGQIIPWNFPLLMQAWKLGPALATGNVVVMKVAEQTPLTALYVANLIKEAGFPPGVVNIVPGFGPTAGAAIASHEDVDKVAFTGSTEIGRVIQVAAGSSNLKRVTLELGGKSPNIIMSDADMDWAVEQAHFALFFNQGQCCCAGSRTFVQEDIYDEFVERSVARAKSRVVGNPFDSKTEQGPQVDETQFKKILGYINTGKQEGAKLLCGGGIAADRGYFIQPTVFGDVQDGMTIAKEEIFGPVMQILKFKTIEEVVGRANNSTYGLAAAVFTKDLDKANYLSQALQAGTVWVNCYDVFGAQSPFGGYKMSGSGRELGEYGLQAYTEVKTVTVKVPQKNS
The note with it: read-out: IC50 ALDH-2.

For `COCCOc1cc(Cl)c(C(=O)NCc2ccc(-c3cc[nH]c(=O)c3)cc2)c(Cl)c1` [(3), 2,6-dichloro-4-(2-methoxyethoxy)-N-(4-(2-oxo-1,2-dihydropyridin-4-yl)benzyl)benzamide], the IC50 at hMAO-A and at hMAO-B was > 130 µM in each case.

As for `O=C(NCc1ccc(-c2cc[nH]c(=O)c2)cc1)c1cccc(F)c1Cl` [(4), 2-chloro-3-fluoro-N-(4-(2-oxo-1,2-dihydropyridin-4-yl)benzyl)benzamide], the IC50 on hMAO-A and on hMAO-B was > 130 µM each time.

Take `Cc1cccc(Cl)c1C(=O)NCc1ccc(-c2cc[nH]c(=O)c2)cc1` [(5), 2-chloro-6-methyl-N-(4-(2-oxo-1,2-dihydropyridin-4-yl)benzyl)benzamide]: the IC50 on hMAO-A and on hMAO-B was > 130 µM in each case.

Take `Cc1cccc(C)c1C(=O)NCc1ccc(-c2cc[nH]c(=O)c2)cc1` [(6), 2,6-dimethyl-N-(4-(2-oxo-1,2-dihydropyridin-4-yl)benzyl)benzamide]: the IC50 at hMAO-A and on hMAO-B was > 130 µM each time.

Regarding `Cc1cc(-c2ccc(CNC(=O)c3c(Cl)cccc3Cl)cc2)cc(=O)[nH]1` [(7), 2,6-dichloro-N-[4-(6-methyl-2-oxo-1,2-dihydro-pyridin-4-yl)-benzyl]-benzamide], the IC50 at hMAO-A and on hMAO-B was > 130 µM each time.

Take `O=C(NCc1ccc(-c2cc[nH]c(=O)c2)cc1)c1c(F)ccc(F)c1Cl` [(8), 2-chloro-3,6-difluoro-N-(4-(2-oxo-1,2-dihydropyridin-4-yl)benzyl)benzamide]: the IC50 at hMAO-A and at hMAO-B was > 130 µM throughout.

In the case of `Cc1cc(CNC(=O)c2c(Cl)cccc2Cl)ccc1-c1cc[nH]c(=O)c1` [(9), 2,6-dichloro-N-(3-methyl-4-(2-oxo-1,2-dihydropyridin-4-yl)benzyl)benzamide], the IC50 at hMAO-A and at hMAO-B was > 130 µM throughout.

In the case of `Cn1ccc(-c2ccc(CNC(=O)c3c(Cl)cccc3Cl)cc2)cc1=O` [(10), 2,6-dichloro-N-(4-(1-methyl-2-oxo-1,2-dihydropyridin-4-yl)benzyl)benzamide], the IC50 at hMAO-A and on hMAO-B was > 130 µM in each case.

As for `O=C(NCc1ccc(-c2cc[nH]c(=O)c2)cc1)c1c(F)cccc1F` [(11), 2,6-difluoro-N-(4-(2-oxo-1,2-dihydropyridin-4-yl)benzyl)benzamide], the IC50 at hMAO-A and at hMAO-B was > 130 µM in each case.

In the case of `O=C(NCc1ccc(-c2cc[nH]c(=O)c2)cc1)c1c(F)cccc1Cl` [(12), 2-chloro-6-fluoro-N-(4-(2-oxo-1,2-dihydropyridin-4-yl)benzyl)benzamide], the IC50 at hMAO-A and on hMAO-B was > 130 µM each time.

For the molecule `O=C(NCc1ccc(-c2cc[nH]c(=O)c2)cc1F)c1c(Cl)cccc1Cl` [(13), 2,6-dichloro-N-(2-fluoro-4-(2-oxo-1,2-dihydropyridin-4-yl)benzyl)benzamide], the IC50 on hMAO-A and at hMAO-B was > 130 µM throughout.

As for `O=C(NCc1ccc(-c2cc(=O)[nH]cc2F)cc1)c1c(Cl)cccc1Cl` [(14), 2,6-dichloro-N-(4-(5-fluoro-2-oxo-1,2-dihydropyridin-4-yl)benzyl)benzamide], the half-maximal inhibitory concentration (IC50) on hMAO-A and on hMAO-B was > 130 µM each time.

As for `O=C(NCc1ccc(-c2cc[nH]c(=O)c2)cc1)c1c(Cl)cccc1Cl` [compound (1), 2,6-dichloro-N-[4-(2-oxo-1,2-dihydro-pyridin-4-yl)-benzyl]-benzamide], the IC50 on hMAO-A and at hMAO-B was > 130 µM throughout.

Regarding `O=C(NCc1ccc(-c2ccn(COP(=O)(O)O)c(=O)c2)cc1)c1c(Cl)cccc1Cl` [compound (2), phosphoric acid mono-(4-{4-[(2,6-dichloro-benzoylamino)-methyl]-phenyl}-2-oxo-2H-pyridin-1-ylmethyl) ester], the IC50 on hMAO-A was > 130 µM; on hMAO-B, > 130 µM; on human ALDH-2 enzyme, > 10 µM.
